Measured values reported in publication PMC3293351, “Pharmacokinetics and Excretion Studies on CDRI-85/92, an Antiulcer Proton Pump Inhibitor” (Scientia Pharmaceutica, 2011).
Values joined by “and” are separate entries in the source; they are usually repeats but may differ in a detail not shown here. Identical values can stand only once. Like-named read-outs stand apart in the source and are kept apart here.

Columns and labels:
[1] = Pharmacokinetics in serum after 20 mg/kg oral and intravenous doses; format: in vivo, Sprague Dawley rats
Method: As the first step of experiment, an aqueous solution formulation of the compound was administered intravenously to conscious rats via the caudal vein at a dose of 20 mg/kg in a volume of approximately 1.0 ml/kg/rat. Before the experiment, the tail was cleaned with luke warm water and the caudal vein was dilated using xylene. Blood (approx. 1.2 ml) was collected by cardiac puncture under light ether anesthesia at 0.08, 0.25, 0.5, 1, 2, 3, 4, 5, 6, 8, 12, 24 and 48 h post dose. In the second study, conscious rats, fasted overnight, were fed orally at a dose of 20 mg/kg in a volume of 2.0 ml/kg/rat. After drug delivery, blood was collected at the same time points used in the intravenous study. Three rats were utilized for each time point and not more than three or four (later in case of 48 hr) blood samples from each rat, two of which were by intracardiac during the absorption-distribution phase (till 5 hr) and one from the venecava in the terminal phase (6 hr onwards), was withdrawn. Together in two sets of studies, there were 24 rats. (Pl refer to Sampling schedule: Table 1). The total volume of the blood withdrawn within 24 h from cardiac puncture was less than 10% of the total blood volume. Blood was allowed to clot in sealed glass tubes and centrifuged at 2000 rpm. The serum was separated and stored at −60°C until analyses.
Serum concentrations of the compound were determined by HPLC method as described by Srivastava & Gupta (2002) with minor modification. Briefly, to 0.5 ml serum (blank, spiked or test) in 10 ml test tube 1.5 ml of acetonitrile was added and vortex-mixed for 15 sec. The tubes were kept in fridge for 30 min for complete protein precipitation, vortex-mixed for 1 min and centrifuged at 1000 × g for 10 min at 4°C. Supernatant (1.5 ml) was transferred to a 10 ml conical tube without disturbing the lower precipitate pellet and evaporated to dryness in Savant speed vac concentrator. The residue was reconstituted in 0.1 ml of mobile phase, centrifuged at 1000 × g for 10 min and the resulting solution was injected onto the HPLC system.
After oral dose, serum peak concentration (Cmax) and the time to reach peak concentration (Tmax) were derived directly from the original data. The serum concentration-time data from intravenous and oral dosed rats were fitted to WinNonlin programme (version 1.5) to calculate various pharmacokinetic parameters (like AUC, Cl and Vd). The bioavailability for oral dose was calculated using the following equation:
%Bioavailability=AUCoral×Doseiv/AUCiv×Doseoral×100

[2] = design: method as in PMID 17045703; details: cited from earlier work
[3] = cited from earlier work
free acidity = details: compared with Omeprazole; cited from earlier work
[4] = test system: proton pumps of the kidney and bone; design: method as in PMID 17045703; details: cited from earlier work
[5] = design: method as in PMID 12711165; details: alike at acidic and basic pHs; cited from earlier work
[6] = log P from potentiometric titration; format: physicochemical; details: aqueous solution titrated with 0.1 M NaOH
Method: where Coctanol and Cbuffer are the concentrations of the compound in octanol and buffer, respectively. Further, log P values {[…]} were also calculated after conducting potentiometric titration. It was carried out manually using a pH electrode and a variable volume pipette. A solution of the compound (1 mg/ml) was prepared in water and it was titrated with a 0.1 M NaOH solution, pH was measured simultaneously. The equivalence point (pKa- partition coefficient) was estimated from the inflection point in the titration curve from the plot between pH and volume of mL of NaOH solution.

[7] = method not specified; cited from earlier work
[8] = Urinary, fecal and biliary excretion after 20 mg/kg oral and intravenous dose; format: in vivo, Sprague Dawley rats; details: for k el: Sprague Dawley, rat; for Excreted in urine, % of the dose: intravenously treated rats, bile duct cannulated as well as noncannulated
Method: Urinary, fecal and biliary excretion of CDRI-85/92 was studied in rats (n=3 per group) after a single 20 mg/kg oral and intravenous dose. Following treatment with CDRI-85/92, urine and feces samples were collected during 24 h with 12 h intervals. Urine was measured and kept in parafilm sealed tubes at −60°C till analyses. Feces samples were dried at 37°C, weighed, ground to fine powder using mortar-pestle and stored in desiccator until analyses. Untreated rats were housed in metabolic cages with food and water ad libitum and their feces and urine collected to serve as blank samples for method development and validation.
For biliary excretion study, bile duct of the rats was surgically cannulated under light ether anesthesia. Rats were dosed with the solution formulation of CDRI-85/92 at 20 mg/kg orally or intravenously and placed in Bollman cages. Bile samples were collected in glass tubes at 0–12 and 12–24 h post dose. The volume of the samples were recorded and stored at −60°C until analyses.
The HPLC method described above was validated for estimation of CDRI-85/92 in urine and bile by assaying the spiked control samples in these biomatrics at three concentration levels (20, 50 and 100 ng/ml of the drug). To have a robust method, inter- and intra-day validation was also conducted (Table 2).
For the preparation of the spiked control feces samples, weighed (25 mg) quantities of drug-free powdered feces were transferred to different glass tubes, fortified with appropriated volume of working dilutions of CDRI-85/92 prepared in methanol, mixed by gentle tapping and allowed to stand at room temperature for drying. The blank, spiked or test samples were moistened with 0.2 ml of KH2PO4 buffer (20 mM, pH 3.0) followed by addition of 1.0 ml of acetonitrile for protein precipitation. The tubes were sealed with parafilm and allowed to stand at room temperature with frequent vortexing. Supernatant were processed as described above for serum samples. For each analytical run, a calibration curve was constructed using peak response against the concentration in calibration standards prepared in same biomatrix.
The amount, cumulative amount and % of the administered dose excreted via urine, bile and feces were calculated.

[9] = test system: glutathione-S-transferases; design: method as in PMID 15283303; details: formation of trans-isoform; cited from earlier work
gastric proton pump = details: cited from earlier work
[10] = Partition coefficient (log P), 1-octanol/phosphate buffer; format: physicochemical; details: 1-octanol/20 mM phosphate buffer; octanol partition, 20 mM phosphate buffer pH 7.4, 25°C
Method: Determination of log P was carried out according to the method of Said et al. (1996). 1-Octanol and 20 mM phosphate buffer (pH, 7.4) were mutually saturated for 6 h on magnetic stirrer and separated. A solution of the compound (1 mg/ml) was prepared in […]. Buffer (2 ml) and octanol containing CDRI-85/92 were placed in seven glass tubes and screw capped. These tubes were tumble-mixed for 2 h at 25°C at about 100 inversions/min. The organic and aqueous phases were separated by centrifugation at 2500 rev/min for 20 min. The concentration of the compound in aqueous and organic phase was determined by HPLC after a suitable dilution in mobile phase. The log P was calculated from the following equation:
Log P=logCoctanol/Cbuffer

Aqueous solubility = format: physicochemical
[11] = design: method as in PMID 12563304; details: in rats; cited from earlier work
[12] = Sprague Dawley, serum, rat, 20 mg/kg IV
[13] = Sprague Dawley, rat serum, 20 mg/kg oral
[14] = IV 20 mg/kg, bile duct cannulated rats
[15] = IV 20 mg/kg, non-cannulated rats
[16] = IV 20 mg/kg, non-cannulated rats, up to 24 h, 20 mg/kg
[17] = oral 20 mg/kg, bile duct cannulated rats
[18] = oral 20 mg/kg, bile duct cannulated rats, up to 24 h, 20 mg/kg
[19] = oral 20 mg/kg, non-cannulated rats
[20] = oral 20 mg/kg, non-cannulated rats, up to 24 h, 20 mg/kg

O=C1NC(C(=O)O)/C(=C\Cc2ccccc2)O1 (stereo not drawn) [CDRI-85/92, (5E)-2-oxo-5-(2-phenylethylidene)-1,3-oxazolidine-4-carboxylic acid]
Cmax ([1]; Sprague Dawley, rat, serum, iv, 20 mg/kg, rat serum, 20 mg/kg IV, read-out: Cmax): 4910 ng/mL | half-life ([1]; Sprague Dawley, rat, serum, iv, 20 mg/kg, rat serum, 20 mg/kg IV, read-out: Elimination t1/2 (converted)): 2 h | Cmax ([1]; Sprague Dawley, rat, serum, po, 20 mg/kg, rat serum, 20 mg/kg oral, read-out: Cmax): 469 ± 45.5 ng/mL | MRT [1, 12]: 1.1 h | Vd [1, 12]: 3.7 L/kg | clearance [1, 12]: 18.3 mL/min | MRT ([1]; Sprague Dawley, serum, rat, 20 mg/kg oral): 3.9 h | bioavailability ([1]; Sprague Dawley, serum, rat, 20 mg/kg oral vs IV, based on AUC): 70.5% | AUC(0-inf) ([1]; Sprague Dawley, rat serum, 20 mg/kg IV): 1250 ng·h/mL | AUC(0-inf) [1, 13]: 882 ng·h/mL | Tmax [1, 13]: 1 h | Elimination t1/2 ([1]; rat serum, 20 mg/kg IV, 20 mg/kg): 2.1 h | Cmax ([1]; rat serum, 20 mg/kg oral, 20 mg/kg): 469.2 ng/mL | Time up to which detected in serum ([1]; rat, 20 mg/kg IV): up to 12 h | MAT (mean absorption time) ([1]; rat, 20 mg/kg oral, MRToral - MRTIV): 2.8 h | Earliest time detectable in serum ([1]; rat, post oral administration 20 mg/kg): 5 min | cytoprotective activity [2]: good cytoprotective activity | aqueous solubility [3]: > 500 µg/mL | % inhibition in the free acidity (free acidity): fairly compares with that of Omeprazole | Inhibition of proton pumps of the kidney and bone [4]: not inhibiting | Ka (absorption rate constant) [5]: 0.12 h⁻¹ | logP [6]: 0.55 ± 0.18 | log P [7]: 0.5 | % of dose recovered, urine 0–12 h [8, 14]: 16.8% | fe (fraction excreted), urine [8, 14]: 0.90 | % of dose recovered, urine total ([8]; IV 20 mg/kg, bile duct cannulated rats, up to 24 h, 20 mg/kg): 16.8 ± 2.7% and 16.8% | % of dose recovered, feces 0–12 h [8, 15]: 0.05% | % of dose recovered, feces 12–24 h [8, 15]: 0.02% | % of dose recovered, urine 0–12 h [8, 15]: 15.7% | fe (fraction excreted), feces [8, 15]: 0.0008 | fe (fraction excreted), urine [8, 15]: 0.9 | % of dose recovered, feces total [8, 16]: 0.08 ± 0.08% and 0.08% | % of dose recovered, urine total [8, 16]: 15.7 ± 3.3% and 15.7% | k el ([8]; bile, po, 20 mg/kg, oral 20 mg/kg, bile duct cannulated rats, read-out: Ke (excretion rate constant), bile (converted)): 2.78e-05 s⁻¹ | k el ([8]; bile, po, 20 mg/kg, oral 20 mg/kg, bile duct cannulated rats, read-out: Kel (elimination rate constant), bile (converted)): 1.33e-05 s⁻¹ | k el ([8]; feces, iv, 20 mg/kg, IV 20 mg/kg, non-cannulated rats, read-out: Ke (excretion rate constant), feces (converted)): 4.17e-05 s⁻¹ | k el ([8]; feces, iv, 20 mg/kg, IV 20 mg/kg, non-cannulated rats, read-out: Kel (elimination rate constant), feces (converted)): 8.33e-06 s⁻¹ | k el ([8]; feces, po, 20 mg/kg, oral 20 mg/kg, non-cannulated rats, read-out: Ke (excretion rate constant), feces (converted)): 1.94e-05 s⁻¹ | k el ([8]; feces, po, 20 mg/kg, oral 20 mg/kg, non-cannulated rats, read-out: Kel (elimination rate constant), feces (converted)): 1.67e-05 s⁻¹ | k el ([8]; urine, iv, 20 mg/kg, IV 20 mg/kg, bile duct cannulated rats, read-out: Ke (excretion rate constant), urine (converted)): 1.11e-05 s⁻¹ | k el ([8]; urine, iv, 20 mg/kg, IV 20 mg/kg, bile duct cannulated rats, read-out: Kel (elimination rate constant), urine (converted)): 1.39e-05 s⁻¹ | k el ([8]; urine, iv, 20 mg/kg, IV 20 mg/kg, non-cannulated rats, read-out: Ke (excretion rate constant), urine (converted)): 2.5e-05 s⁻¹ | k el ([8]; urine, iv, 20 mg/kg, IV 20 mg/kg, non-cannulated rats, read-out: Kel (elimination rate constant), urine (converted)): 2.78e-05 s⁻¹ | k el ([8]; urine, po, 20 mg/kg, oral 20 mg/kg, bile duct cannulated rats, read-out: Ke (excretion rate constant), urine (converted)): 1.67e-05 s⁻¹ | k el ([8]; urine, po, 20 mg/kg, oral 20 mg/kg, bile duct cannulated rats, read-out: Kel (elimination rate constant), urine (converted)): 1.94e-05 s⁻¹ | k el ([8]; urine, po, 20 mg/kg, oral 20 mg/kg, non-cannulated rats, read-out: Ke (excretion rate constant), urine (converted)): 1.11e-05 s⁻¹ | k el ([8]; urine, po, 20 mg/kg, oral 20 mg/kg, non-cannulated rats, read-out: Kel (elimination rate constant), urine (converted)): 1.94e-05 s⁻¹ | Excreted in urine, % of the dose [8]: 15% | Excreted in urine, % of the dose ([8]; listed as CDRI 85/92): ~ 15% | % of dose recovered, bile 0–12 h [8, 17]: 0.3% | % of dose recovered, bile 12–24 h [8, 17]: 0.08% | % of dose recovered, urine 0–12 h [8, 17]: 1.5% | % of dose recovered, urine 12–24 h [8, 17]: 0.2% | fe (fraction excreted), bile [8, 17]: 0.0037 | fe (fraction excreted), urine [8, 17]: 0.83 | % of dose recovered, bile total [8, 18]: 0.37 ± 0.12% and 0.37% | % of dose recovered, urine total [8, 18]: 1.7 ± 0.8% and 1.7% | % of dose recovered, feces 0–12 h [8, 19]: 1.0% | % of dose recovered, feces 12–24 h [8, 19]: 0.2% | % of dose recovered, urine 0–12 h [8, 19]: 3.7% | % of dose recovered, urine 12–24 h [8, 19]: 0.5% | fe (fraction excreted), feces [8, 19]: 0.012 | % of dose recovered, feces total [8, 20]: 1.2 ± 0.6% and 1.2% | % of dose recovered, urine total [8, 20]: 4.2 ± 1.1% and 4.2% | Levels of the compound in bile and feces ([8]; rats, 20 mg/kg): insignificant levels | Metabolism by glutathione-S-transferases [9]: very slow metabolism | Inhibition of the gastric proton pump (gastric proton pump): selective and competitive inhibition | logP [10]: 0.53 ± 0.11 | Solubility in formulation (Aqueous solubility; 10 and 20 mg/ml in triple distilled water): completely soluble | Solubility in water (Aqueous solubility; water): freely soluble in water

COc1ccc2[nH]c([S+]([O-])Cc3ncc(C)c(OC)c3C)nc2c1 (stereo not drawn) [Omeprazole, reference compound]
Type of proton pump inhibition (gastric proton pump): irreversible proton pump inhibitor | half-life [11]: less than 5 min
